Test results published in ChEMBL document CHEMBL1140558, “An atom efficient, solvent-free, green synthesis and antimycobacterial evaluation of 2-amino-6-methyl-4-aryl-8-[(E)-arylmethylidene]-5,6,7,8-tetrahydro-4H-pyrano[3,2-c]pyridine-3-carbonitriles” (2007).
Values after ≈ are worked out from the molar mass of the structure shown.

These molecules were tested on Mycolicibacterium smegmatis (assay: Antimycobacterial activity against Mycobacterium smegmatis ATCC 14468 by agar dilution method).
Type: functional

Going from `CN1CC2=C(OC(N)=C(C#N)C2c2ccc(Cl)cc2)/C(=C/c2ccc(Cl)cc2)C1` (centres undefined) to `CN1CC2=C(OC(N)=C(C#N)C2c2ccc(F)cc2)/C(=C/c2ccc(F)cc2)C1` (centres undefined), the MIC rises from 3.68 µM (≈ 1.56 µg/mL) to 32 µM (≈ 12.5 µg/mL) (8.7-fold).

Compared with `COc1c(N2CCNC(C)C2)c(F)cc2c(=O)c(C(=O)O)cn(C3CC3)c12` (centres undefined) [GATIFLOXACIN], `COc1ccc(/C=C2\CN(C)CC3=C2OC(N)=C(C#N)C3c2ccc(OC)cc2)cc1` (centres undefined) is 29-fold higher in MIC: 2.08 µM (≈ 0.781 µg/mL) for the first, 60.2 µM (≈ 25 µg/mL) for the second.

`NNC(=O)c1ccncc1` [ISONIAZID] and `CN1CC2=C(OC(N)=C(C#N)C2c2cccs2)/C(=C/c2cccs2)C1` (centres undefined) are within 1.5-fold of each other in MIC: 45.6 µM (≈ 6.25 µg/mL) for the first, 34.1 µM (≈ 12.5 µg/mL) for the second.

Compared with `CN1CC2=C(OC(N)=C(C#N)C2c2ccc(N(C)C)cc2)/C(=C/c2ccc(N(C)C)cc2)C1` (centres undefined), `Cc1ccc(/C=C2\CN(C)CC3=C2OC(N)=C(C#N)C3c2ccc(C)cc2)cc1` (centres undefined) is 2.3-fold higher in MIC: 28.3 µM (≈ 12.5 µg/mL) for the first, 65.3 µM (≈ 25 µg/mL) for the second.

Going from `CN1CC2=C(OC(N)=C(C#N)C2/C=C/c2ccccc2)/C(=C/C=C/c2ccccc2)C1` (centres undefined) to `CN1CC2=C(OC(N)=C(C#N)C2c2ccccc2)/C(=C/c2ccccc2)C1` (centres undefined), the MIC rises from 30.7 µM (≈ 12.5 µg/mL) to 70.4 µM (≈ 25 µg/mL) (2.3-fold).

`COc1ccccc1/C=C1\CN(C)CC2=C1OC(N)=C(C#N)C2c1ccccc1OC` (centres undefined) and `Cc1ccccc1/C=C1\CN(C)CC2=C1OC(N)=C(C#N)C2c1ccccc1C` (centres undefined) are within 1.5-fold of each other in MIC: 30.1 µM (≈ 12.5 µg/mL) for the first, 32.6 µM (≈ 12.5 µg/mL) for the second.

Going from `CN1CC2=C(OC(N)=C(C#N)C2c2ccco2)/C(=C/c2ccco2)C1` (centres undefined) to `CN1CC2=C(OC(N)=C(C#N)C2c2ccccc2Cl)/C(=C/c2ccccc2Cl)C1` (centres undefined), the MIC rises from 37.3 µM (≈ 12.5 µg/mL) to 59 µM (≈ 25 µg/mL) (1.6-fold).

Going from `CN1CC2=C(OC(N)=C(C#N)C2c2cccc([N+](=O)[O-])c2)/C(=C/c2cccc([N+](=O)[O-])c2)C1` (centres undefined) to `CN1CC2=C(OC(N)=C(C#N)C2c2cccc(F)c2)/C(=C/c2cccc(F)c2)C1` (centres undefined), the MIC falls from 56.2 µM (≈ 25 µg/mL) to 32 µM (≈ 12.5 µg/mL) (1.8-fold).

Work on `CN1CC2=C(OC(N)=C(C#N)C2c2ccc(Cl)cc2Cl)/C(=C/c2ccc(Cl)cc2Cl)C1` (centres undefined) yielded an MIC of 50.7 µM (≈ 25 µg/mL).

These molecules were tested on Mycobacterium tuberculosis (assay: Antimycobacterial activity against Mycobacterium tuberculosis H37Rv by agar dilution method).
Type: functional

`CN1CC2=C(OC(N)=C(C#N)C2c2ccc(Cl)cc2)/C(=C/c2ccc(Cl)cc2)C1` (centres undefined) and `CN1CC2=C(OC(N)=C(C#N)C2c2ccc(F)cc2)/C(=C/c2ccc(F)cc2)C1` (centres undefined) are within 1.5-fold of each other in MIC: 0.92 µM (≈ 0.39 µg/mL) for the first, 0.97 µM (≈ 0.38 µg/mL) for the second.

Going from `COc1c(N2CCNC(C)C2)c(F)cc2c(=O)c(C(=O)O)cn(C3CC3)c12` (centres undefined) [GATIFLOXACIN] to `COc1ccc(/C=C2\CN(C)CC3=C2OC(N)=C(C#N)C3c2ccc(OC)cc2)cc1` (centres undefined), the MIC rises from 2.08 µM (≈ 0.781 µg/mL) to 30.1 µM (≈ 12.5 µg/mL) (14-fold).

Compared with `NNC(=O)c1ccncc1` [ISONIAZID], `CN1CC2=C(OC(N)=C(C#N)C2c2cccs2)/C(=C/c2cccs2)C1` (centres undefined) is 190-fold higher in MIC: 0.36 µM (≈ 0.0494 µg/mL) for the first, 68.1 µM (≈ 25 µg/mL) for the second.

Compared with `CN1CC2=C(OC(N)=C(C#N)C2c2ccc(N(C)C)cc2)/C(=C/c2ccc(N(C)C)cc2)C1` (centres undefined), `Cc1ccc(/C=C2\CN(C)CC3=C2OC(N)=C(C#N)C3c2ccc(C)cc2)cc1` (centres undefined) is 38-fold higher in MIC: 0.43 µM (≈ 0.19 µg/mL) for the first, 16.3 µM (≈ 6.26 µg/mL) for the second.

`CN1CC2=C(OC(N)=C(C#N)C2/C=C/c2ccccc2)/C(=C/C=C/c2ccccc2)C1` (centres undefined) and `CN1CC2=C(OC(N)=C(C#N)C2c2ccccc2)/C(=C/c2ccccc2)C1` (centres undefined) are within 1.5-fold of each other in MIC: 30.7 µM (≈ 12.5 µg/mL) for the first, 35.2 µM (≈ 12.5 µg/mL) for the second.

`COc1ccccc1/C=C1\CN(C)CC2=C1OC(N)=C(C#N)C2c1ccccc1OC` (centres undefined) and `Cc1ccccc1/C=C1\CN(C)CC2=C1OC(N)=C(C#N)C2c1ccccc1C` (centres undefined) are within 1.5-fold of each other in MIC: 15.1 µM (≈ 6.26 µg/mL) for the first, 16.3 µM (≈ 6.26 µg/mL) for the second.

First: CN1CC2=C(OC(N)=C(C#N)C2c2ccco2)/C(=C/c2ccco2)C1 (centres undefined)
Second: CN1CC2=C(OC(N)=C(C#N)C2c2ccccc2Cl)/C(=C/c2ccccc2Cl)C1 (centres undefined)
The MIC of the first is 20-fold higher: 37.3 µM (≈ 12.5 µg/mL) for the first, 1.84 µM (≈ 0.781 µg/mL) for the second.

First: CN1CC2=C(OC(N)=C(C#N)C2c2cccc([N+](=O)[O-])c2)/C(=C/c2cccc([N+](=O)[O-])c2)C1 (centres undefined)
Second: CN1CC2=C(OC(N)=C(C#N)C2c2cccc(F)c2)/C(=C/c2cccc(F)c2)C1 (centres undefined)
The MIC of the first is 1.8-fold higher: 1.75 µM (≈ 0.78 µg/mL) for the first, 0.99 µM (≈ 0.388 µg/mL) for the second.

For `CN1CC2=C(OC(N)=C(C#N)C2c2ccc(Cl)cc2Cl)/C(=C/c2ccc(Cl)cc2Cl)C1` (centres undefined), the MIC was 25.4 µM (≈ 12.5 µg/mL).
